# Assay results taken from patent publication US11078170B2 (Assembly Biosciences, Inc., priority 2017, dated 2021).
# Test system: HBV viral production from HepAD38 cells
# Test: Activity of test compounds on viral production from HepAD38 cells (viral load by qPCR of HBV core sequence in supernatant)
# Format: cell-based
# Conditions: Hepatitis B virus, 120 h, 5 days incubation, HBV DNA in supernatant by qPCR, top concentration 10 μM, read-out: Viral Load EC50 Activity range
# Outline: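 HepAD38 cells, 50,000/well in tetracycline-free 2% FBS medium, treated 5 days at 37° C. with compound from 10 μM top concentration. HBV DNA in supernatant quantified by TaqMan qPCR of core sequence against DNA standards, relative to DMSO wells; CellTiter-Glo viability read in parallel. EC50/CC50 from four-parameter logistic fit.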
row,Structure (SMILES),EC50
1,"CN1[C@@H](C(=O)Nc2ccc(F)c(Cl)c2)C[C@@H](C2CCCC2)NS1(=O)=O [HBV-CSU-222-ISO-II, Cis-N-(3-chloro-4-fluorophenyl)-5-cyclopentyl-2-methyl-1,2,6-thiadiazinane-3-carboxamide 1,1-dioxide]",1000 to 5000 nM
2,"Cc1ncc([C@H]2C[C@@H](C(=O)Nc3ccc(F)c(Cl)c3)N(C)S(=O)(=O)N2)s1 [HBV-CSU-224-ISO-I, Cis-N-(3-Chloro-4-fluorophenyl)-2-methyl-5-(2-methylthiazol-5-yl)-1,2,6-thiadiazinane-3-carboxamide 1,1-dioxide]",< 1000 nM
3,"Cc1ncc([C@@H]2C[C@H](C(=O)Nc3ccc(F)c(Cl)c3)N(C)S(=O)(=O)N2)s1 [HBV-CSU-224-ISO-II, Cis-N-(3-Chloro-4-fluorophenyl)-2-methyl-5-(2-methylthiazol-5-yl)-1,2,6-thiadiazinane-3-carboxamide 1,1-dioxide]",> 5000 nM
4,"CN1C(C(=O)Nc2ccc(F)c(Cl)c2)CC(c2cnc(C(F)(F)F)s2)NS1(=O)=O (stereo not drawn) [HBV-CSU-226, Cis-N-(3-chloro-4-fluorophenyl)-2-methyl-5-(2-(trifluoromethyl)thiazol-5-yl)-1,2,6-thiadiazinane-3-carboxamide 1,1-dioxide]",1000 to 5000 nM
5,"CN1[C@H](C(=O)Nc2ccc(F)c(Cl)c2)C[C@H](c2ccc(F)c(F)c2)NS1(=O)=O [HBV-CSU-230-ISO-I, Cis-N-(3-Chloro-4-fluorophenyl)-5-(3,4-difluorophenyl)-2-methyl-1,2,6-thiadiazinane-3-carboxamide 1,1-dioxide]",< 1000 nM
6,"CN1[C@@H](C(=O)Nc2ccc(F)c(Cl)c2)C[C@@H](c2ccc(F)c(F)c2)NS1(=O)=O [HBV-CSU-230-ISO-II, Cis-N-(3-Chloro-4-fluorophenyl)-5-(3,4-difluorophenyl)-2-methyl-1,2,6-thiadiazinane-3-carboxamide 1,1-dioxide]",> 5000 nM
7,"CN1[C@@H](C(=O)Nc2ccc(F)c(Cl)c2)C[C@@H](c2cccc(F)c2)NS1(=O)=O [HBV-CSU-231-ISO-II, Cis-N-(3-Chloro-4-fluorophenyl)-5-(3-fluorophenyl)-2-methyl-1,2,6-thiadiazinane-3-carboxamide 1,1-dioxide]",> 5000 nM
8,"CN1C(C(=O)Nc2ccc(F)c(Cl)c2)CC(c2cnc(-c3ccccc3)s2)NS1(=O)=O (centres unmarked) [HBV-CSU-235, N-(3-Chloro-4-fluorophenyl)-2-methyl-5-(2-phenylthiazol-5-yl)-1,2,6-thiadiazinane-3-carboxamide 1,1-dioxide]",< 1000 nM
9,"CN1[C@H](C(=O)Nc2ccc(F)c(Cl)c2)C[C@H](c2cnc(-c3ccccc3)s2)NS1(=O)=O [HBV-CSU-235-ISO-I, N-(3-Chloro-4-fluorophenyl)-2-methyl-5-(2-phenylthiazol-5-yl)-1,2,6-thiadiazinane-3-carboxamide 1,1-dioxide]",< 1000 nM
10,"CN1[C@@H](C(=O)Nc2ccc(F)c(Cl)c2)C[C@@H](c2cnc(-c3ccccc3)s2)NS1(=O)=O [HBV-CSU-235-ISO-II, N-(3-Chloro-4-fluorophenyl)-2-methyl-5-(2-phenylthiazol-5-yl)-1,2,6-thiadiazinane-3-carboxamide 1,1-dioxide]",> 5000 nM
11,CN1[C@@H](C(=O)Nc2ccc(F)c(Cl)c2)C[C@@H](c2ccc(-c3ccc(F)cc3)s2)NS1(=O)=O [HBV-CSU-238-ISO-II],1000 to 5000 nM
12,CN1[C@H](C(=O)Nc2ccc(F)c(Cl)c2)C[C@H](c2ccc(-c3ccc(F)cc3)s2)NS1(=O)=O [HBV-CSU-238-ISO-I],< 1000 nM
13,CN1C(C(=O)Nc2ccc(F)c(Cl)c2)CC(c2ccc(-c3ccc(F)cc3)s2)NS1(=O)=O (centres unmarked) [HBV-CSU-238],< 1000 nM
14,CN1[C@@H](C(=O)Nc2ccc(F)c(Cl)c2)C[C@@H](c2cc(-c3ccc(F)cc3)cs2)NS1(=O)=O [HBV-CSU-239-ISO-II],1000 to 5000 nM
15,CN1[C@H](C(=O)Nc2ccc(F)c(Cl)c2)C[C@H](c2cc(-c3ccc(F)cc3)cs2)NS1(=O)=O [HBV-CSU-239-ISO-I],< 1000 nM
16,CN1C(C(=O)Nc2ccc(F)c(Cl)c2)CC(c2cc(-c3ccc(F)cc3)cs2)NS1(=O)=O (centres unmarked) [HBV-CSU-239],< 1000 nM
17,COc1ccc(-c2ccc([C@@H]3C[C@H](C(=O)Nc4ccc(F)c(Cl)c4)N(C)S(=O)(=O)N3)s2)cc1 [HBV-CSU-240-ISO-II],1000 to 5000 nM
18,COc1ccc(-c2ccc([C@H]3C[C@@H](C(=O)Nc4ccc(F)c(Cl)c4)N(C)S(=O)(=O)N3)s2)cc1 [HBV-CSU-240-ISO-I],< 1000 nM
19,COc1ccc(-c2csc([C@@H]3C[C@H](C(=O)Nc4ccc(F)c(Cl)c4)N(C)S(=O)(=O)N3)c2)cc1 [HBV-CSU-241-ISO-II],1000 to 5000 nM

row,Structure (SMILES),EC50
1,COc1ccc(-c2csc([C@H]3C[C@@H](C(=O)Nc4ccc(F)c(Cl)c4)N(C)S(=O)(=O)N3)c2)cc1 [HBV-CSU-241-ISO-I],< 1000 nM
2,COc1ccc(-c2csc(C3CC(C(=O)Nc4ccc(F)c(Cl)c4)N(C)S(=O)(=O)N3)c2)cc1 (centres unmarked) [HBV-CSU-241],< 1000 nM
3,"CN1[C@H](C(=O)Nc2ccc(F)c(Cl)c2)C[C@H](c2ccc(-c3ccc(F)cn3)s2)NS1(=O)=O [HBV-CSU-242-ISO-I, Cis-N-(3-chloro-4-fluorophenyl)-5-(5-(5-fluoropyridin-2-yl)thiophen-2-yl)-2-methyl-1,2,6-thiadiazinane-3-carboxamide 1,1-dioxide]",< 1000 nM
4,"CN1[C@@H](C(=O)Nc2ccc(F)c(Cl)c2)C[C@@H](c2ccc(-c3ccc(F)cn3)s2)NS1(=O)=O [HBV-CSU-242-ISO-II, Cis-N-(3-chloro-4-fluorophenyl)-5-(5-(5-fluoropyridin-2-yl)thiophen-2-yl)-2-methyl-1,2,6-thiadiazinane-3-carboxamide 1,1-dioxide]",> 5000 nM
5,CN1[C@@H](C(=O)Nc2ccc(F)c(Cl)c2)C[C@@H](c2ccc(-c3cn[nH]c3)s2)NS1(=O)=O [HBV-CSU-244-ISO-II],< 1000 nM
6,CN1[C@H](C(=O)Nc2ccc(F)c(Cl)c2)C[C@H](c2ccc(-c3cn[nH]c3)s2)NS1(=O)=O [HBV-CSU-244-ISO-I],< 1000 nM
7,CN1C(C(=O)Nc2ccc(F)c(Cl)c2)CC(c2ccc(-c3cn[nH]c3)s2)NS1(=O)=O (centres unmarked) [HBV-CSU-244],< 1000 nM
8,CN1[C@@H](C(=O)Nc2ccc(F)c(Cl)c2)C[C@@H](c2cc(-c3cn[nH]c3)cs2)NS1(=O)=O [HBV-CSU-245-ISO-II],< 1000 nM
9,CN1[C@H](C(=O)Nc2ccc(F)c(Cl)c2)C[C@H](c2cc(-c3cn[nH]c3)cs2)NS1(=O)=O [HBV-CSU-245-ISO-I],< 1000 nM
10,CN1C(C(=O)Nc2ccc(F)c(Cl)c2)CC(c2cc(-c3cn[nH]c3)cs2)NS1(=O)=O (centres unmarked) [HBV-CSU-245],< 1000 nM
11,"CN1[C@H](C(=O)Nc2ccc(F)c(Cl)c2)C[C@H](c2ccc(-c3cnn(C)c3)cc2)NS1(=O)=O [HBV-CSU-246-ISO-II, Cis-N-(3-Chloro-4-fluorophenyl)-2-methyl-5-(4-(1-methyl-1H-pyrazol-4-yl)phenyl)-1,2,6-thiadiazinane-3-carboxamide 1,1-dioxide]",< 1000 nM
12,"CN1[C@H](C(=O)Nc2ccc(F)c(Cl)c2)C[C@H](c2cccc(-c3cnn(C)c3)c2)NS1(=O)=O [HBV-CSU-247-ISO-I, Cis-N-(3-chloro-4-fluorophenyl)-2-methyl-5-(3-(1-methyl-1H-pyrazol-4-yl)phenyl)-1,2,6-thiadiazinane-3-carboxamide 1,1-dioxide]",> 5000 nM
13,"CN1[C@@H](C(=O)Nc2ccc(F)c(Cl)c2)C[C@@H](c2cccc(-c3cnn(C)c3)c2)NS1(=O)=O [HBV-CSU-247-ISO-II, Cis-N-(3-chloro-4-fluorophenyl)-2-methyl-5-(3-(1-methyl-1H-pyrazol-4-yl)phenyl)-1,2,6-thiadiazinane-3-carboxamide 1,1-dioxide]",< 1000 nM
14,"CN1[C@H](C(=O)Nc2ccc(F)c(Cl)c2)C[C@H](c2ncc(-c3ccc(F)cc3)s2)NS1(=O)=O [HBV-CSU-248-ISO-I, Cis-N-(3-Chloro-4-fluorophenyl)-5-(5-(4-fluorophenyl)thiazol-2-yl)-2-methyl-1,2,6-thiadiazinane-3-carboxamide 1,1-dioxide]",< 1000 nM
15,"CN1[C@@H](C(=O)Nc2ccc(F)c(Cl)c2)C[C@@H](c2ncc(-c3ccc(F)cc3)s2)NS1(=O)=O [HBV-CSU-248-ISO-II, Cis-N-(3-Chloro-4-fluorophenyl)-5-(5-(4-fluorophenyl)thiazol-2-yl)-2-methyl-1,2,6-thiadiazinane-3-carboxamide 1,1-dioxide]",> 5000 nM
16,"COc1ccc(-c2cnc([C@H]3C[C@@H](C(=O)Nc4ccc(F)c(Cl)c4)N(C)S(=O)(=O)N3)s2)cc1 [HBV-CSU-250-ISO-I, Cis-N-(3-Chloro-4-fluorophenyl)-5-(5-(4-methoxyphenyl)thiazol-2-yl)-2-methyl-1,2,6-thiadiazinane-3-carboxamide 1,1-dioxide]",< 1000 nM
17,"COc1ccc(-c2cnc([C@@H]3C[C@H](C(=O)Nc4ccc(F)c(Cl)c4)N(C)S(=O)(=O)N3)s2)cc1 [HBV-CSU-250-ISO-II, Cis-N-(3-Chloro-4-fluorophenyl)-5-(5-(4-methoxyphenyl)thiazol-2-yl)-2-methyl-1,2,6-thiadiazinane-3-carboxamide 1,1-dioxide]",1000 to 5000 nM
18,"CN1[C@H](C(=O)Nc2ccc(F)c(Cl)c2)C[C@H](c2ncc(-c3ccc(F)cn3)s2)NS1(=O)=O [HBV-CSU-252-ISO-I, Cis-N-(3-Chloro-4-fluorophenyl)-5-(5-(5-fluoropyridin-2-yl)thiazol-2-yl)-2-methyl-1,2,6-thiadiazinane-3-carboxamide 1,1-dioxide]",< 1000 nM
19,"CN1[C@@H](C(=O)Nc2ccc(F)c(Cl)c2)C[C@@H](c2ncc(-c3ccc(F)cn3)s2)NS1(=O)=O [HBV-CSU-252-ISO-II, Cis-N-(3-Chloro-4-fluorophenyl)-5-(5-(5-fluoropyridin-2-yl)thiazol-2-yl)-2-methyl-1,2,6-thiadiazinane-3-carboxamide 1,1-dioxide]",> 5000 nM
